# Data reported in patent publication EP2408450B1, “ALPHA-(N-SULFONAMIDO)ACETAMIDE COMPOUND AS AN INHIBITOR OF BETA AMYLOID PEPTIDE PRODUCTION” (Bristol-Myers Squibb Company, priority 2009, dated 2010).
# Legend:
# [1] = target: presenilin target site of the γ-secretase complex; assay: Presenilin binding assay (radioligand displacement, THP-1 membranes); conditions: mean ± SD, n = 8
# Experimental: Radioligand displacement assays with [^3H] (R)-4-((N-(1-amino-4-methyl-1-oxopentan-2-yl)-4-chlorophenylsulfonamido)methyl)-N-(2-methoxyethyl)benzamide were carried out using a method previously described for [^3H] (2R,3S)-2-isobutyl-N1-((S)-2-oxo-1-(3-phenoxybenzyl)azepan-3-yl)-3-propylsuccinamide (RE987, compound A [Seiffert, D. et al., "Presenilin-1 and -2 are molecular targets for γ-secretase inhibitors", J. Biol. Chem., 275(44):34086-34091 (2000)]). Several experiments were performed to confirm that [^3H] (R)-4-((N-(1-amino-4-methyl-1-oxopentan-2-yl)-4-chlorophenylsulfonamido)methyl)-N-(2-methoxyethyl)benzamide bound to γ-secretase. First, the specific binding of [^3H] […] (R)-4-((N-(1-amino-4-methyl-1-oxopentan-2-yl)-4-chlorophenylsulfonamido)methyl)-N-(2-methoxyethyl)benzamide binding to THP-1 membranes correlated well with γ-secretase potency both as measured using previous radioligand binding assays and inhibition of Aβ formation in cultured cells.
# THP-1 cells were grown in Spinner cultures in RPMI 1640 containing L-glutamine (Life Technologies Inc.) and 10 µM β-mercaptoethanol to a cell density of 5 x 10^5/mL. […] Filters were washed three times with 0.3 mL per well of phosphate buffered saline pH 7.0 at 4°C and radioactivity was measured using a Wallac 1450 Microbeta liquid scintillation counter (PerkinElmer, Boston, MA). […]
# [2] = system: γ-secretase inhibitor binding sites in the brain; assay: Gamma-secretase site occupancy in rat brain sections; assay type: in vivo
# Experimental: Female Harlan Sprague-Dawley rats (∼200 - 250 g) were dosed daily by oral gavage with a dosing vehicle of 99% PEG-400, 1% Tween-80 at 4 mL/kg in the morning. […] All procedures were done in concordance with ACUC guidelines. […] Plasma was obtained after centrifugation. […] CSF samples were centrifuged to remove cells or debris prior to dilution at 1:2 in 4% BSA and frozen for subsequent analysis.
# Brain sections were cut coronally at a thickness of 20 µm on a cryostat and thaw-mounted onto Superfrost Plus slides. Sections were saved at the level of the rostral hippocampus, with 3 sections per slide at intervals of about 120 µm, and frozen at -20°C until use. For occupancy studies, brain sections were warmed to room temperature, dried, incubated for 10 minutes in 50 mM HEPES buffer, pH 7.4, then transferred to the same buffer containing 1.5 nM [^3H]IN973 (Goldstein, M.E. et al., J. Pharmacol. Exp. Ther., 323:102-108 (2007)) or [^3H] (R)-4-((N-(1-amino-4-methyl-1-oxopentan-2-yl)-4-chlorophenylsulfonamido)methyl)-N-(2-methoxyethyl)benzamide and incubated at room temperature for 10 minutes. To define nonspecific binding, adjacent sections were incubated in buffer containing [^3H]IN973 or [^3H] (R)-4-((N-(1-amino-4-methyl-1-oxopentan-2-yl)-4-chlorophenylsulfonamido)methyl)-N-(2-methoxyethyl)benzamide, but including unlabeled γ-secretase inhibitor at 0.5 µM. After the incubation, the slides were washed three times for 2 minutes each in ice-cold PBS, pH 7.2, dipped in ice-cold distilled water, and dried with a fan blowing cool air. The slides were placed under tritium-sensitive phosphor storage screens (Amersham Biosciences, Arlington Heights, IL) and exposed in the dark for 7 days. Images were acquired from the phosphor storage screens using a Cyclone phosphor scanner (Packard, Meriden, CT) and OptiQuant acquisition and analysis software (Packard). Optical densities (expressed as digital light units per square millimeter) over areas of interest were measured and expressed as a percent of vehicle control.
structure (smiles),measurement,setting,value
"NC(=O)[C@@H](CCC(F)(F)F)N(Cc1ccc(-c2ncon2)cc1F)S(=O)(=O)c1ccc(Cl)cc1 [(2R)-2-[[(4-chlorophenyl)sulfonyl][[2-fluoro-4-(1,2,4-oxadiazol-3-yl)phenyl]methyl]amino]-5,5,5-trifluoropentanamide]",Ki,[1],0.48 nM
same,site occupancy,"[2]; single dose 1 mg/kg, by 24 hours",gradually returned to baseline values
same,brain γ-secretase binding sites occupied,"[2]; single dose 1 mg/kg, two hours after dose",75%
same,γ-secretase inhibitor binding sites in the brain occupied,"[2]; single dose 10 mg/kg, 24 hr timepoint",88%
same,γ-secretase inhibitor binding sites in the brain occupied,"[2]; single dose 10 mg/kg, all but the 24 hr timepoint",greater than 94%
same,γ-secretase inhibitor binding sites in the brain occupied,"[2]; single dose 100 mg/kg, throughout the dosing interval",greater than 94%
